Measurements published in the NIST ThermoML archive (doi:10.1021/acs.jced.6b00327).

Experiment: xn = mol fraction of the nth substance listed
Conditions: Liquid, Buoyancy - hydrostatic balance with magnetic suspension - one sinker

F/C=C/C(F)(F)F [trans-1,3,3,3-tetrafluoropropene] + CCC
Conditions	mass density [kg/m3]
253.14 K, x1 = 0.4965	913.53
253.3 K, x1 = 0.1746	680.21
253.44 K, x1 = 0.8803	1197.23
253.45 K, x1 = 0.7006	1067.62
256.11 K, x1 = 0.1746	676.35
258.14 K, x1 = 0.7006	1056.03
258.17 K, x1 = 0.4965	903.57
258.2 K, x1 = 0.8803	1186.23
261.14 K, x1 = 0.1746	670.01
263.15 K, x1 = 0.7006	1043.42
263.16 K, x1 = 0.4965	892.67
263.17 K, x1 = 0.8803	1175.37
265.18 K, x1 = 0.1746	662.22
268.17 K, x1 = 0.7006	1030.6
268.19 K, x1 = 0.4965	884.02
268.2 K, x1 = 0.8803	1162.41
269.18 K, x1 = 0.1746	655.74
273.18 K, x1 = 0.7006	1017.6
273.18 K, x1 = 0.8803	1149.12
273.2 K, x1 = 0.1746	648.23
273.2 K, x1 = 0.4965	873.27
278.19 K, x1 = 0.8803	1135.29
278.2 K, x1 = 0.1746	640.01
278.2 K, x1 = 0.7006	1004.24
278.24 K, x1 = 0.4965	862
283.18 K, x1 = 0.1746	630.77
283.19 K, x1 = 0.4965	851.76
283.19 K, x1 = 0.8803	1121.17
283.2 K, x1 = 0.7006	991.21
288.21 K, x1 = 0.8803	1106.57
288.22 K, x1 = 0.7006	977.85
288.25 K, x1 = 0.4965	842.07
293.28 K, x1 = 0.4965	831.58
293.28 K, x1 = 0.7006	963.78
293.28 K, x1 = 0.8803	1091.31
